ChEMBL document CHEMBL6182864, “Design, synthesis and biological evaluation of 3-amino-6-(2-hydroxyphenyl)pyridazin-4-aryl derivatives as SMARCA2/4 degraders” (Eur J Med Chem, 2025)
Activity calls are given as the source filed them. The calls are words filed in the database; no cut-off is given here.

What was measured:
MV4-11 [1] = test: Effect on SMARCA2 mRNA expression in human MV4-11 cells at 1000 nM measured after 24 hrs by RT-qPCR analysis; assay type: functional, cell-based
MV4-11 [2] = test: Induction of apoptosis in human MV4-11 cells assessed as necrotic cells at 300 nM measured after 72 hrs by Annexin-V-FITC/propidium iodide staining based flow cytometry (reference value: 0.1%); assay type: functional
MV4-11 [3] = test: Down regulation of PU.1 mRNA expression in human MV4-11 cells at 11.1 to 1000 nM measured after 24 hrs by RT-qPCR analysis; assay type: functional, cell-based; conditions: dose 11.1-1000 nM
[4] = Down regulation of SMARCA2 level in human MV4-11 cells at 100 nM measured after 6 hrs by mass spectrometric proteomic analysis relative to control; assay type: functional
[5] = Oral bioavailability in SPF Sprague-Dawley rat at 10 mg/kg by LC-MS/MS analysis; assay type: ADME, organism-based; conditions: in vivo
MV4-11 [6] = test: Induction of apoptosis in human MV4-11 cells assessed as late apoptotic cells at 1000 nM measured after 72 hrs by Annexin-V-FITC/propidium iodide staining based flow cytometry (reference value: 1.09%); assay type: functional
MOLM-13 [7] = test: Induction of apoptosis in human MOLM-13 cells assessed as necrotic cells at 300 nM measured after 72 hrs by Annexin-V-FITC/propidium iodide staining based flow cytometry (reference value: 0.28%); assay type: functional
MV4-11 [8] = test: Effect on SMARCA4 mRNA expression in human MV4-11 cells at 1000 nM measured after 24 hrs by RT-qPCR analysis; assay type: functional, cell-based
[9] = Cmax in SPF Sprague-Dawley rat at 10 mg/kg, po by LC-MS/MS analysis; assay type: ADME, organism-based; conditions: in vivo
[10] = Half life in SPF Sprague-Dawley rat at 1 mg/kg, iv by LC-MS/MS analysis; assay type: ADME, organism-based; conditions: in vivo
MV4-11 [11] = test: Induction of apoptosis in human MV4-11 cells assessed as upregulation of PARP expression measured after 72 hrs by Western blot analysis; assay type: functional, cell-based; conditions: dose 100-1000 nM
[12] = Tmax in SPF Sprague-Dawley rat at 1 mg/kg, iv by LC-MS/MS analysis; assay type: ADME, organism-based; conditions: in vivo
MV4-11 [13] = test: Down regulation of CD44 mRNA expression in human MV4-11 cells at 11.1 to 1000 nM measured after 24 hrs by RT-qPCR analysis; assay type: functional, cell-based; conditions: dose 11.1-1000 nM
[14] = Tmax in SPF Sprague-Dawley rat at 10 mg/kg, po by LC-MS/MS analysis; assay type: ADME, organism-based; conditions: in vivo
MV4-11 [15] = test: Induction of apoptosis in human MV4-11 cells assessed as upregulation of cleaved caspase-3 expression measured after 72 hrs by Western blot analysis; assay type: functional, cell-based; conditions: dose 100-1000 nM
[16] = Down regulation of SMARCA4 level in human MV4-11 cells at 100 nM measured after 6 hrs by mass spectrometric proteomic analysis relative to control; assay type: functional
[17] = Down regulation of PBRM1 level in human MV4-11 cells at 100 nM measured after 6 hrs by mass spectrometric proteomic analysis relative to control; assay type: functional
MOLM-13 [18] = test: Induction of apoptosis in human MOLM-13 cells assessed as necrotic cells at 100 nM measured after 72 hrs by Annexin-V-FITC/propidium iodide staining based flow cytometry (reference value: 0.28%); assay type: functional
MV4-11 [19] = test: Induction of apoptosis in human MV4-11 cells assessed as late apoptotic cells at 300 nM measured after 72 hrs by Annexin-V-FITC/propidium iodide staining based flow cytometry (reference value: 1.09%); assay type: functional
MV4-11 [20] = test: Induction of apoptosis in human MV4-11 cells assessed as early apoptotic cells at 1000 nM measured after 72 hrs by Annexin-V-FITC/propidium iodide staining based flow cytometry (reference value: 9.32%); assay type: functional
MV4-11 [21] = test: Antiproliferative activity against human MV4-11 cells assessed as reduction in cell viability at 100 nM by MTT assay; assay type: functional, cell-based; conditions: time 3-7 day
MV4-11 [22] = test: Induction of apoptosis in human MV4-11 cells assessed as necrotic cells at 1000 nM measured after 72 hrs by Annexin-V-FITC/propidium iodide staining based flow cytometry (reference value: 0.1%); assay type: functional
A549 = test: cells; conditions: Homo sapiens, A549, 72 h
MV4-11 [23] = test: Down regulation of […] mRNA expression in human MV4-11 cells at 11.1 to 33.3 nM measured after 24 hrs by RT-qPCR analysis; assay type: functional, cell-based; conditions: dose 11.1-33.3 nM
MV4-11 [24] = test: Induction of apoptosis in human MV4-11 cells assessed as viable cells at 1000 nM measured after 72 hrs by Annexin-V-FITC/propidium iodide staining based flow cytometry (reference value: 89.49%); assay type: functional; conditions: read-out: Activity
MOLM-13 [25] = test: Induction of apoptosis in human MOLM-13 cells assessed as upregulation of PARP expression measured after 72 hrs by Western blot analysis; assay type: functional, cell-based; conditions: dose 100-1000 nM
[26] = Cmax in SPF Sprague-Dawley rat at 1 mg/kg, iv by LC-MS/MS analysis; assay type: ADME, organism-based; conditions: in vivo
HCT-116 = test: cells; conditions: Homo sapiens, HCT-116, 72 h
MV4-11 [27] = test: Down regulation of BCL-2 mRNA expression in human MV4-11 cells at 11.1 to 1000 nM measured after 24 hrs by RT-qPCR analysis; assay type: functional, cell-based; conditions: dose 11.1-1000 nM
MV4-11 [28] = test: Down regulation of CDC25A mRNA expression in human MV4-11 cells at 11.1 to 33.3 nM measured after 24 hrs by RT-qPCR analysis; assay type: functional, cell-based; conditions: dose 11.1-33.3 nM
WSUDLCL2 = test: cells; conditions: Homo sapiens, WSUDLCL2, 72 h
MV4-11 [29] = test: Induction of apoptosis in human MV4-11 cells assessed as viable cells at 300 nM measured after 72 hrs by Annexin-V-FITC/propidium iodide staining based flow cytometry (reference value: 89.49%); assay type: functional; conditions: read-out: Activity
MCF7 = test: cells; conditions: Homo sapiens, MCF7, 72 h
MOLM-13 [30] = test: Induction of apoptosis in human MOLM-13 cells assessed as viable cells at 100 nM measured after 72 hrs by Annexin-V-FITC/propidium iodide staining based flow cytometry (reference value: 90.28%); assay type: functional; conditions: read-out: Activity
MV4-11 [31] = test: cells; conditions: Homo sapiens, MV4-11, 72 h
MV4-11 [32] = test: Induction of apoptosis in human MV4-11 cells assessed as necrotic cells at 100 nM measured after 72 hrs by Annexin-V-FITC/propidium iodide staining based flow cytometry (reference value: 0.1%); assay type: functional
MOLM-13 [33] = test: Antiproliferative activity against human MOLM-13 cells assessed as reduction in cell viability at 100 nM by MTT assay; assay type: functional, cell-based; conditions: time 3-7 day
SNU-449 = test: cells; conditions: Homo sapiens, SNU-449, 72 h
MV4-11 [34] = test: Cell cycle arrest in human MV4-11 cells assessed as increase in accumulation of cells at G0/G1 phase measured after 48 hrs by propidium iodide staining based flow cytometry; assay type: functional; conditions: dose 100-1000 nM
MOLM-13 [35] = test: Induction of apoptosis in human MOLM-13 cells assessed as viable cells at 1000 nM measured after 72 hrs by Annexin-V-FITC/propidium iodide staining based flow cytometry (reference value: 90.28%); assay type: functional; conditions: read-out: Activity

For `Cc1ncsc1-c1ccc([C@H](C)NC(=O)[C@@H]2C[C@@H](O)CN2C(=O)[C@@H](NC(=O)C2(c3ccc(-c4cc(-c5ccccc5O)nnc4N)cc3)CC2)C(C)(C)C)cc1`, the Activity (MV4-11 [1]) was “Active; Little Effect Mrna Level Observed”, the Activity (MV4-11 [2]) was 1.1% and the Activity (MV4-11 [3]) was “Active”. For the same compound, the Activity [4] was “>=50%”, the F [5] was 0.62% and the Activity (MV4-11 [6]) was 24.35%. For the same compound, the Activity (MOLM-13 [7]) was 0.31%, the Activity (MV4-11 [8]) was “Active; Little Effect Mrna Level Observed” and the Cmax [9] was 0.00641 µg/mL. For the same compound, the half-life [10] was 115 min, the Activity (MV4-11 [11]) was “Dose-dependent-effect” and the Tmax [12] was 1.98 min. The Activity (MV4-11 [13]) was “Active”, the Tmax [14] was 25.2 min and the Activity (MV4-11 [15]) was “Dose-dependent-effect”. The Activity [16] was “>=50%”, the Activity [17] was “>=50%” and the Activity (MOLM-13 [18]) was 0.19%. For the same compound, the Activity (MV4-11 [19]) was 20.37%, the Activity (MV4-11 [20]) was 51.91% and the Activity (MV4-11 [21]) was “Time-dependent-effect; Complete Reduction Was Achieved On Day 7”. For the same compound, the Activity (MV4-11 [22]) was 1.67%, the IC50 (A549) was 6.02 µM and the Activity (MV4-11 [23]) was “inactive”. For the same compound, the viability at 1 µM (MV4-11 [24]) was 22.1%, the Activity (MOLM-13 [25]) was “Dose-dependent-effect” and the Cmax [26] was 1.95 µg/mL. For the same compound, the IC50 (HCT-116) was over 30 µM, the Activity (MV4-11 [27]) was “Active” and the Activity (MV4-11 [28]) was “inactive”. The IC50 (WSUDLCL2) was 0.337 µM, the viability at 0.3 µM (MV4-11 [29]) was 24.4% and the IC50 (MCF7) was over 30 µM. For the same compound, the viability at 0.1 µM (MOLM-13 [30]) was 54.1%, the IC50 (MV4-11 [31]) was 0.005 µM and the Activity (MV4-11 [32]) was 1.26%. The Activity (MOLM-13 [33]) was “Time-dependent-effect; Complete Reduction Was Achieved On Day 7”, the IC50 (SNU-449) was 21.5 µM and the Activity (MV4-11 [34]) was “Dose-dependent-effect”. It also gave a viability at 1 µM (MOLM-13 [35]) of 25.7%.
